Test results: paper PMC7068051, “Thermal stability, ligand binding and allergenicity data of Mus m 1.0102 allergen and its cysteine mutants” (Data in Brief, 2020)
Changes are numbered by the printed parent chain.

Legend:
Assay in all cases: direct fluorescence titration (ex […] nm, em […] nm), nonlinear regression
Format in all cases: binding
Mus m 1.0102 [1] = molecular target: T1, Mus m 1.0102 (Mus musculus, UniProt P11589, C156A); conditions: 20 nM protein, Tris-HCl 10 mM pH 7.2, 25 °C; hydrophobic pocket
T1 construct: gene Mup2; recombinant lipocalin allergen
T1 sequence (P11589 19-180 C156A): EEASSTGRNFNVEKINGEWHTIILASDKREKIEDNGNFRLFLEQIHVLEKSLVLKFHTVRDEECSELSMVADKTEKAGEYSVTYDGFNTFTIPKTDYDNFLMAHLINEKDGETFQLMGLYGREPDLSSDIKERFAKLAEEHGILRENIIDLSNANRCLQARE

Mus m 1.0102 [2] = molecular target: T2, Mus m 1.0102 (Mus musculus, UniProt P11589); conditions: 20 nM protein, Tris-HCl 10 mM pH 7.2, 25 °C; hydrophobic pocket
T2 construct: gene Mup2; recombinant lipocalin allergen
T2 sequence (P11589 19-180): T1 sequence (P11589 19-180 C156A) with A138C

Mus m 1.0102 [3] = molecular target: T3, Mus m 1.0102 (Mus musculus, UniProt P11589, C175A)
T3 construct: gene Mup2; recombinant lipocalin allergen
T3 sequence (P11589 19-180 C175A): T1 sequence (P11589 19-180 C156A) with A138C, C157A

Mus m 1.0102 [4] = molecular target: T4, Mus m 1.0102 (Mus musculus, UniProt P11589, C156A/C175A); conditions: 20 nM protein, Tris-HCl 10 mM pH 7.2, 25 °C; hydrophobic pocket
T4 construct: gene Mup2; recombinant lipocalin allergen
T4 sequence (P11589 19-180 C156A/C175A): T1 sequence (P11589 19-180 C156A) with C157A

c1ccc(Nc2cccc3ccccc23)cc1 [N-Phenyl-1-naphthylamine]
Kd (Mus m 1.0102 [1]): 33.8 ± 6.4 nM
Kd (Mus m 1.0102 [2]): 25 ± 1.5 nM
Kd (Mus m 1.0102 [3]): 85.5 ± 13.7 nM
Kd (Mus m 1.0102 [4]): 45.2 ± 4 nM
